Where two headings read alike, the source gives them in different places.
Legend:
Experiment in all cases: microbe, parasite or virus in culture
Format in all cases: cell-based
[1] = test system: HCV 1a RLuc cells (dicistronic genotype 1a H77 replicon, RLuc reporter); conditions: read-out: 1a
Outline: (§1)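 Renilla luciferase HCV replicon cells: dicistronic 1b Con1, 1a H77 or 2a JFH-1 replicons, or a JFH-1 chimera carrying J6 NS5A (M31 present). Compound in DMSO serial dilutions, 72 h incubation, then lysis and luciferase read. EC50 by non-linear regression.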

[2] = test system: HCV 1b RLuc cells (dicistronic genotype 1b Con1 replicon, RLuc reporter)
Outline: as §1

[3] = test system: HCV 3a RLuc cells (NS5A chimeric genotype 1b Con1 replicon with consensus genotype 3a NS5A gene)
Outline: (§2)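 Replicon cells stably carrying the listed RLuc-encoding dicistronic replicons were seeded and treated with DMSO serial dilutions of compound (10 mM stocks) diluted into culture medium. After 72 h, cells were lysed and Renilla luciferase activity measured. EC50 was derived by non-linear regression.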

[4] = test system: HCV 2a JFH-1 Rluc cells (dicistronic genotype 2a JFH-1 replicon, RLuc reporter); conditions: genotype 2a JFH-1 replicon, read-out: 2a JFH
Outline: as §1

[5] = test system: HCV 4a Rluc cells (NS5A chimeric genotype 1b Con1 replicon with genotype 4a NS5A gene); conditions: read-out: 4a
Outline: as §2

[6] = Hepatitis C virus, genotype 1a replicon
[7] = Hepatitis C virus, read-out: 1b (nM)
[8] = Hepatitis C virus, read-out: 3a, genotype 3a replicon
[9] = Hepatitis C virus, 72 h, Table 2, genotype 1a H77 replicon, 72 hours
[10] = Hepatitis C virus, 72 h, read-out: 1b (nM)
[11] = Hepatitis C virus, read-out: 3a, Table 2, genotype 3a NS5A chimeric replicon
[12] = Hepatitis C virus, 72 h, Table 2, 72 hours
[13] = Hepatitis C virus, genotype 1a H77 replicon, RLuc reporter
[14] = Hepatitis C virus, read-out: 3a, genotype 3a NS5A chimeric 1b Con1 replicon
[15] = Hepatitis C virus, RLuc reporter

SMILES | EC50 [2, 7] [nM] | EC50 ([5]; Hepatitis C virus) [nM] | EC50 [1, 9] [nM] | EC50 [2, 10] [nM] | EC50 [3, 11] [nM] | EC50 [4, 12] [nM] | also measured
COC(=O)N[C@H](C(=O)N1[C@@H]2CC[C@@H](C2)[C@H]1c1nc2ccc3cc(-c4ccc(-c5cnc([C@@H]6C[C@H]7C[C@H]7N6C(=O)[C@@H](NC(=O)OC)C(C)C)[nH]5)cc4)ccc3c2[nH]1)C(C)C [Example 340] | 0.013 | 0.001 to 0.99 |  |  |  |  | EC50 [1, 6]: 0.001 to 0.999 nM; EC50 [3, 8]: 0.001 to 0.99 nM; EC50 ([4]; Hepatitis C virus): 0.001 to 0.999 nM
COC(=O)N[C@H](C(=O)N1CCC[C@H]1c1ncc(-c2ccc3cc(-c4ccc5c(ccc6nc([C@@H]7[C@H]8CC[C@H](C8)N7C(=O)[C@H](NC(=O)OC)c7ccccc7)[nH]c65)c4)ccc3c2)[nH]1)C(C)C [Example 326] | 0.005 | 0.001 to 0.99 |  |  |  |  | EC50 [1, 6]: 0.001 to 0.999 nM; EC50 [3, 8]: 1 to 4.99 nM; EC50 ([4]; Hepatitis C virus): 0.001 to 0.999 nM
COC(=O)NC(C(=O)N1CCC[C@H]1c1ncc(-c2ccc(-c3ccc4c(ccc5nc([C@@H]6[C@H]7CC[C@H](C7)N6C(=O)[C@@H](NC(=O)OC)C6CCOCC6)[nH]c54)c3)cc2)[nH]1)C(C)C (stereo partly shown) [Example 67] |  | 0.001 to 0.99 | 0.001 to 0.999 | 0.044 | 1 to 4.99 | 0.001 to 0.999 | 
COC(=O)N[C@H](C(=O)N1CCC[C@H]1c1ncc(-c2ccc3cc(-c4ccc5c(c4)CCc4nc([C@@H]6CCCN6C(=O)[C@@H](NC(=O)OC)C6CCOCC6)[nH]c4-5)ccc3c2)[nH]1)C(C)C [Example 222] |  |  |  |  |  |  | EC50 ([1]; genotype 1a H77 replicon, RLuc reporter): 0.001 to 0.999 nM; EC50 ([2]; read-out: 1b): 0.023 nM; EC50 ([3]; read-out: 3a, genotype 3a NS5A chimeric 1b Con1 replicon): 0.001 to 0.99 nM; EC50 ([4]; RLuc reporter): 0.001 to 0.999 nM; EC50 ([5]; genotype 4a NS5A chimeric 1b Con1 replicon): 0.001 to 0.99 nM
COC(=O)N[C@H](C(=O)N1CC2(C[C@H]1c1ncc(-c3ccc4cc(-c5ccc(-c6cnc([C@@H]7CCCN7C(=O)[C@H](NC(=O)OC)c7ccccc7)[nH]6)cc5)ccc4c3)[nH]1)OCCO2)C(C)C [Example 43] |  | 0.001 to 0.99 | 0.001 to 0.999 | 0.009 | 1 to 4.99 | 0.001 to 0.999 | 
COC(=O)N[C@H](C(=O)N1[C@@H]2CC[C@@H](C2)[C@H]1c1nc2ccc(-c3ccc4c(c3)C(F)(F)c3cc(-c5cnc([C@@H]6CCCN6C(=O)[C@H](NC(=O)OC)c6ccccc6)[nH]5)ccc3-4)cc2[nH]1)C(C)C [Example 41] |  | 0.001 to 0.99 | 0.001 to 0.999 | 0.005 | 0.001 to 0.99 | 0.001 to 0.999 | 
COC(=O)N[C@H](C(=O)N1CCC[C@H]1c1ncc(-c2ccc3cc(-c4ccc(-c5cnc([C@@H]6CCCN6C(=O)[C@H](NC(=O)c6ccccn6)c6ccccc6)[nH]5)cc4)ccc3c2)[nH]1)C(C)C [Example 221] | 0.017 | 0.001 to 0.99 |  |  |  |  | EC50 [1, 13]: 0.001 to 0.999 nM; EC50 [3, 14]: 0.001 to 0.99 nM; EC50 [4, 15]: 0.001 to 0.999 nM
COC(=O)NC(C(=O)N1CCC[C@H]1c1nc2ccc3cc(-c4ccc5cc(-c6cnc([C@@H]7[C@H]8CC[C@H](C8)N7C(=O)[C@H](NC(=O)OC)c7ccccc7)[nH]6)ccc5c4)ccc3c2[nH]1)[C@@H](C)OC (stereo partly shown) [Example 70] |  | 0.001 to 0.99 | 0.001 to 0.999 | 0.008 | 1 to 4.99 | 1 to 44 | 
COC(=O)N[C@H](C(=O)N1CCC[C@H]1c1ncc(-c2ccc3c(c2)COc2cc(-c4ccc5nc([C@@H]6[C@H]7CC[C@H](C7)N6C(=O)[C@H](NC(=O)OC)c6ccccc6)[nH]c5c4)ccc2-3)[nH]1)C(C)C [Example 94] |  | 0.001 to 0.99 | 0.001 to 0.999 | 0.007 | 0.001 to 0.99 | 0.001 to 0.999 | 
COC(=O)N[C@H](C(=O)N1CC2(C[C@H]1c1ncc(-c3ccc(-c4ccc5cc(-c6cnc([C@@H]7CCCN7C(=O)[C@H](NC(=O)OC)c7ccccc7)[nH]6)ccc5c4)cc3)[nH]1)OCCO2)C1CCOCC1 [Example 50] |  | 0.001 to 0.99 | 0.001 to 0.999 | 0.031 | 0.001 to 0.99 | 0.001 to 0.999 | 
COC(=O)N[C@H](C(=O)N1CCC[C@H]1c1ncc(-c2ccc3cc(-c4ccc(-c5cnc([C@@H]6CCCN6C(=O)[C@@H](NC(=O)OC)C6CCSCC6)[nH]5)cc4)ccc3c2)[nH]1)C(C)C [Example 278] | 0.013 | 0.001 to 0.99 |  |  |  |  | EC50 [1, 13]: 0.001 to 0.999 nM; EC50 [3, 14]: 1 to 4.99 nM; EC50 [4, 15]: 0.001 to 0.999 nM
CC#Cc1cc(-c2cnc([C@@H]3CCCN3C(=O)[C@@H](NC(=O)OC)C(C)C)[nH]2)ccc1-c1ccc2c(ccc3nc([C@@H]4CCCN4C(=O)[C@@H](NC(=O)OC)C(C)C)[nH]c32)c1 [Example 372] | 0.008 | 0.001 to 0.99 |  |  |  |  | EC50 [1, 6]: 0.001 to 0.999 nM; EC50 [3, 8]: 0.001 to 0.99 nM; EC50 ([4]; Hepatitis C virus): 0.001 to 0.999 nM
COC(=O)N[C@H](C(=O)N1CCC[C@H]1c1nc2ccc3cc(C#Cc4ccc(-c5cnc([C@@H]6CCCN6C(=O)[C@H](NC(=O)OC)c6ccccc6)[nH]5)cc4)ccc3c2[nH]1)[C@@H](C)OC [Example 268] | 0.007 | 0.001 to 0.99 |  |  |  |  | EC50 [1, 13]: 0.001 to 0.999 nM; EC50 [3, 14]: 0.001 to 0.99 nM; EC50 [4, 15]: 0.001 to 0.999 nM
COC(=O)NC(C(=O)N1CCC[C@H]1c1ncc(-c2ccc3cc(-c4ccc(-c5cnc([C@@H]6CC(C)(Br)CN6C(=O)[C@@H](NC(=O)OC)C6CCOCC6)[nH]5)cc4)ccc3c2)[nH]1)c1ccccc1 (stereo partly shown) [Example 205] | 0.016 | 0.001 to 0.99 |  |  |  |  | EC50 [1, 13]: 0.001 to 0.999 nM; EC50 [3, 14]: 1 to 4.99 nM; EC50 [4, 15]: 0.001 to 0.999 nM
COC(=O)N[C@H](C(=O)N1CCC[C@H]1c1ncc(-c2ccc3cc(-c4ccc(-c5cnc([C@@H]6CCCN6C(=O)[C@H](NC(=O)CN(C)C)c6ccccc6)[nH]5)cc4)ccc3c2)[nH]1)C(C)C [Example 237] | 0.023 | 0.001 to 0.99 |  |  |  |  | EC50 [1, 13]: 0.001 to 0.999 nM; EC50 [3, 14]: 0.001 to 0.99 nM; EC50 [4, 15]: 0.001 to 0.999 nM
COC(=O)N[C@H](C(=O)N1CC2(CC2)C[C@H]1c1ncc(-c2ccc3c(c2)C(F)(F)c2cc(-c4ccc5nc([C@@H]6[C@H]7CC[C@H](C7)N6C(=O)[C@H](c6ccccc6)N6CCOCC6)[nH]c5c4)ccc2-3)[nH]1)C(C)C [Example 97] |  | 0.001 to 0.99 | 1 to 44 | 0.009 | > 5 | 1 to 44 | 
COC(=O)N[C@H](C(=O)N1[C@@H]2C[C@@H]2C[C@H]1c1nc2ccc3cc(-c4ccc(-c5cnc([C@@H]6[C@H]7CC[C@H](C7)N6C(=O)[C@H](NC(=O)OC)c6ccccc6)[nH]5)cc4)ccc3c2[nH]1)C(C)C [Example 337] | 0.01 | 0.001 to 0.99 |  |  |  |  | EC50 [1, 6]: 0.001 to 0.999 nM; EC50 [3, 8]: 0.001 to 0.99 nM; EC50 ([4]; Hepatitis C virus): 0.001 to 0.999 nM
COC(=O)N[C@H](C(=O)N1CCC[C@H]1c1ncc(-c2ccc3c4ccc(-c5cnc([C@@H]6CCCN6C(=O)[C@@H](NC(=O)OC)C(C)C)[nH]5)cc4c4nccnc4c3c2)[nH]1)C(C)C [Example 18] |  | 0.001 to 0.99 |  | 0.018 |  |  | EC50 ([1]; Hepatitis C virus, 72 h, Table 1, genotype 1a H77 replicon, 72 hours): 0.001 to 0.999 nM; EC50 ([3]; Hepatitis C virus, read-out: 3a, Table 1, genotype 3a NS5A chimeric replicon): 1 to 4.99 nM; EC50 ([4]; Hepatitis C virus, 72 h, Table 1, 72 hours): 0.001 to 0.999 nM
COC(=O)N[C@H](C(=O)N1CCC[C@H]1c1ncc(-c2ccc(-c3ccc4c(ccc5nc([C@@H]6SCCN6C(=O)[C@@H](NC(=O)OC)C(C)C)[nH]c54)c3)cc2)[nH]1)C(C)C [Example 333] | 0.646 | 0.001 to 0.99 |  |  |  |  | EC50 [1, 6]: 1 to 44 nM; EC50 [3, 8]: 1 to 4.99 nM; EC50 ([4]; Hepatitis C virus): 0.001 to 0.999 nM
COC(=O)N[C@H](C(=O)N1[C@@H]2CC[C@@H](C2)[C@H]1c1ncc(-c2ccc3c(c2)CCc2cc(-c4cnc([C@@H]5CCCN5C(=O)[C@@H](NC(=O)OC)C(C)OC)[nH]4)ccc2-3)[nH]1)C(C)C (stereo partly shown) [Example 85] |  | 0.001 to 0.99 | 0.001 to 0.999 | 0.016 | 1 to 4.99 | 0.001 to 0.999 | 
